Among the test systems are SF-295; UO-31; HCT-15; ACHN; SF-539; KM12; M14; UACC-62; RXF 393; OVCAR-4; SK-MEL-2; SNB-19; SN12C; U-251; SW-620; NCI-H522; OVCAR-3; TK-10; LOX IMVI.
Assay in all cases: DTP human tumour cell line panel, 48 h

As a reminder, the GI50 is the concentration that inhibits growth by half.

Structures are written as SMILES.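 96-well plates; 48 h exposure; 5 concentrations. Endpoints by linear interpolation between flanking doses. Not reached: highest tested concentration assigned. GI50 is the concentration that inhibits growth by half.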 The source made the active and inactive calls. Cut-off read from the data, not from the text of the source: active = GI50 up to about 1.1 µM and inactive = higher.

For `Cc1ccccc1N(CCC#N)C1=NN(C(=O)CC(=O)Nc2ccc(Cl)cc2)C(c2ccccc2)C1` (configuration not stated), the GI50 in the test on SF-295 was > 100 µM (inactive); with UO-31 it was > 100 µM (inactive); in the test on HCT-15, above 100 µM; in the test with ACHN, > 100 µM (inactive); in the test with SF-539, > 100 µM (inactive); with KM12, > 100 µM (inactive). The GI50 in the test with M14, in the test with UACC-62, in the test with RXF 393, with OVCAR-4, with SK-MEL-2 and with SNB-19 was > 100 µM (inactive) in each case. For the same molecule, the GI50 in the test with SN12C, in the test on U-251, in the test on SW-620, in the test with NCI-H522 and with OVCAR-3 was > 100 µM (inactive) throughout.

As for `O=C(CNc1nncs1)NO`, the GI50 in the test on SF-295 was > 100 µM (inactive); in the test on UO-31, > 100 µM (inactive); with HCT-15, above 100 µM; in the test on ACHN it was > 100 µM (inactive); in the test with SF-539, > 100 µM (inactive); in the test on KM12, > 100 µM (inactive). Besides, the GI50 in the test on M14, in the test on UACC-62, with RXF 393, in the test on OVCAR-4, with SK-MEL-2 and in the test on SNB-19 was > 100 µM (inactive) in each case. In addition, the GI50 with SN12C, in the test on U-251, in the test on SW-620, in the test on NCI-H522, with TK-10 and in the test on OVCAR-3 was > 100 µM (inactive) throughout.

Consider `COC[C@@H](/N=C/N1CCc2cc(OC)c(OC)cc2[C@@H]1C)C(C)(C)C`, for which the GI50 in the test on SF-295 was > 100 µM (inactive); with UO-31, > 100 µM (inactive); in the test with HCT-15 it was above 100 µM; with ACHN, > 100 µM (inactive); in the test on SF-539, > 100 µM (inactive); with KM12, > 100 µM (inactive). For the same molecule, the GI50 in the test on M14 is > 100 µM (inactive); in the test with UACC-62 it was > 100 µM (inactive); in the test with RXF 393, > 100 µM (inactive); in the test on OVCAR-4, > 100 µM (inactive); in the test on SK-MEL-2 it was 86.7 µM (inactive); in the test on SNB-19 it was > 100 µM (inactive). Besides, the GI50 in the test with SN12C, in the test with U-251, in the test with SW-620, in the test with NCI-H522, in the test with TK-10 and in the test on OVCAR-3 was > 100 µM (inactive) throughout.

`COc1ccc2c(c1)[n+]([O-])c(-c1ccc([N+](=O)[O-])cc1)c(N)[n+]2[O-]`: the GI50 in the test with SF-295, in the test on UO-31, in the test with ACHN, in the test on SF-539, in the test with KM12 and in the test with M14 was > 100 µM (inactive) in each case. Besides, the GI50 in the test on RXF 393 was > 100 µM (inactive); with OVCAR-4, > 100 µM (inactive); in the test on SK-MEL-2, 80.4 µM (inactive); in the test on SNB-19 it was > 100 µM (inactive); with SN12C it was > 100 µM (inactive); with U-251 it was 68.1 µM (inactive). Further, the GI50 in the test with SW-620 is > 100 µM (inactive); in the test on NCI-H522, 12.7 µM (inactive); in the test with OVCAR-3, > 100 µM (inactive).

Regarding `CCc1ccccc1NC(=O)C1=C(C)NC(C)=C(C(=O)Nc2ccccc2CC)C1c1ccc2c(c1)OCO2`, the GI50 in the test with SF-295 is 33.3 µM (inactive); in the test on UO-31 it was 18.5 µM (inactive); in the test with ACHN, 22.8 µM (inactive); in the test with SF-539, 16.8 µM (inactive); in the test with KM12, 19.2 µM (inactive); in the test with M14 it was 26.2 µM (inactive). Further, the GI50 with RXF 393 is 20 µM (inactive); in the test with OVCAR-4, 23.2 µM (inactive); in the test with SK-MEL-2, 19.2 µM (inactive); with SNB-19 it was 49.3 µM (inactive); in the test on SN12C, 41.2 µM (inactive); with U-251, 26.9 µM (inactive). Further, the GI50 in the test on LOX IMVI is 24.4 µM (inactive); in the test with SW-620 it was 28.9 µM (inactive); with NCI-H522, 24.1 µM (inactive); in the test on TK-10, 47.6 µM (inactive); with OVCAR-3, 22.5 µM (inactive).

For `O=C1NC(=O)C2C1N(Cc1ccccc1)C(=O)N2Cc1ccccc1` (configuration not stated), the GI50 in the test on SF-295 is > 100 µM (inactive); in the test with UO-31, > 100 µM (inactive); in the test on HCT-15, above 100 µM; in the test on ACHN it was > 100 µM (inactive); with SF-539, > 100 µM (inactive); with KM12, > 100 µM (inactive). Moreover, the GI50 in the test with M14, in the test on UACC-62, in the test with RXF 393, with OVCAR-4, in the test on SNB-19 and in the test with SN12C was > 100 µM (inactive) each time. Moreover, the GI50 in the test on U-251, in the test with LOX IMVI, in the test on SW-620, in the test on NCI-H522, in the test on TK-10 and in the test on OVCAR-3 was > 100 µM (inactive) in each case.

Regarding `C=Cc1ccc(C)[n+](C[Si](C)(C)O[Si](C)(C)C[n+]2cc(C=C)ccc2C)c1`, the GI50 in the test on SF-295, in the test with UO-31, in the test with ACHN, with SF-539, in the test on KM12 and in the test on M14 was > 100 µM (inactive) throughout. The GI50 with UACC-62, with RXF 393, in the test on OVCAR-4, in the test with SK-MEL-2, in the test with SNB-19 and in the test with SN12C was > 100 µM (inactive) each time. The GI50 with U-251, in the test on LOX IMVI, in the test with SW-620, with NCI-H522, in the test with TK-10 and in the test with OVCAR-3 was > 100 µM (inactive) each time.

As to `Nc1ccccc1S(=O)(=O)N(CC(=O)O)c1ccccc1`, the GI50 in the test on UO-31 was > 100 µM (inactive); with HCT-15, above 100 µM; in the test with ACHN it was > 100 µM (inactive); in the test with SF-539, > 100 µM (inactive); in the test on M14, > 100 µM (inactive); in the test on UACC-62, > 100 µM (inactive). Further, the GI50 in the test with RXF 393, with OVCAR-4, in the test with SK-MEL-2, with SNB-19, with SN12C and in the test with U-251 was > 100 µM (inactive) throughout. Besides, the GI50 with LOX IMVI, with SW-620, with NCI-H522 and in the test on TK-10 was > 100 µM (inactive) each time.

The values are drawn from ChEMBL document CHEMBL1201862, “PubChem BioAssay data set” (2004).
